Experiments:
pain threshold in mice = experiment: Analgetic effect, Pressure Test (pain threshold, tail pressure); type: in vivo, dd Male mice; conditions: 100 mg/kg oral; for Pain threshold, Mean ± SE, 30 min / Pain threshold, Mean ± SE, 60 min / Pain threshold, Mean ± SE, 90 min / Pain threshold, Mean ± SE, 120 min: *p <0.05, **p <0.01, ***p <0.001
Procedure: dd Male mice weighing 18 to 22 g (pain threshold ranging within 30 to 50 mmHg), one group consisting of 10 animals, were given orally the test compounds suspended in 0.2% carboxymethylcellulose solution in a dose of 100mg/kg-body weight. Pain threshold were measured at 30, 60, 90 and 120 minutes after the administration of the test compounds while pain reaction occurring by application of pressure on tails of animals was referred to as indication. Aminopyrine was used as active placebo.

mice [1] = experiment: Muscular relaxing effect, Inclined Plane Test (I.P), oral, mice; type: in vivo, dd Male mice; conditions: Mus musculus; Table 1; oral; mice; maximum response 15-180 min; Litchfield Wilcoxon
Procedure: (§1) dd Male mice weighing 18 to 22 g, one group consisting of 10 animals, were orally given the compounds (I) to (V) as indicated below suspended in 0.2% carboxymethylcellulose solution in a dose of 0.25ml/10g-body weight. Mephenesin was used as active placebo.
Mice were placed on veneer inclined at an angle of 30° and on wire-netting inclined at an angle of 60° of which one division is 5 mm square, and mice sliding down were observed as positive, in comparison with normal behavior.

mice [2] = experiment: Muscular relaxing effect, Righting Reflex Test (R.r), oral, mice; type: in vivo, dd Male mice; conditions: Mus musculus; Table 1; oral; mice; maximum response 15-180 min; Litchfield Wilcoxon
Procedure: as §1

[3] = tested on: carrageenan-induced edema in rats; experiment: Antiinflammatory effect on carrageenan-induced edema; type: in vivo, Wistar male rats; conditions: Table 5, 200 mg/kg oral
Procedure: […] One hour after the administration of the test compounds, the hind paw was given a subcutaneous injection of 0.05ml of 0.5% carrageenan saline solution, and volume of the hind paw was measured at 1, 2, 3, 4, 5 and 6 hours after the injection of carrageenan by a volume differential meter. Inhibitory percent was calculated based on the swelling in the control. Phenybutazone was used as active placebo.

mice [4] = experiment: Muscular relaxing effect, Corneal Reflex Test (C.r), oral, mice; type: in vivo, dd Male mice; conditions: Mus musculus; Table 1; oral; mice; maximum response 15-180 min; Litchfield Wilcoxon
Procedure: as §1
Corneal reflex was observed by using mandolin wire for 1/4 injection syringe.

mice [5] = experiment: Muscular relaxing effect, Rotarod Method (R.R), oral, mice; type: in vivo, dd Male mice; conditions: Mus musculus; Table 1; oral; mice; maximum response 15-180 min; Litchfield Wilcoxon
Procedure: as §1
Mice were placed on Rotar Load (made by Natsume Seisakusho Co., Ltd.) having a diameter of 3 cm rotating at a speed of 10 rpm and falling (occurring within 3 minutes) was observed.

[6] = tested on: acetic acid-induced writhing syndrome in mice; experiment: Analgetic effect, Acetic Acid-Induced Writhing Method; type: in vivo, dd Male mice; conditions: 100 mg/kg oral, 30 min before acetic acid; for Writhing syndrome (number within 20 minutes): control 52.1 ± 2.7; for Inhibitory per cent (writhing): vs control
Procedure: dd Male mice weighing 18 to 22g, one group consisting of 10 animals, were given the intraperitoneal injection of 0.6% acetic acid in a dose of 0.1ml/10g-body weight. The number of writhing syndromes occurring within 20 minutes after injection was observed. Animals were orally given the test compounds suspended in 0.2% carboxymethylcellulose solution 30 minutes before the injection of acetic acid in a dose of 100mg/kg-body weight. Inhibitory percent was estimated in comparison with a control given the 0.2% carboxymethycellulose solution only. Aminopyrine was used as active placebo.

mice [7] = experiment: Muscular relaxing effect, Traction Test (T.T), oral, mice; type: in vivo, dd Male mice; conditions: Mus musculus; Table 1; oral; mice; maximum response 15-180 min; Litchfield Wilcoxon
Procedure: as §1

mice [8] = experiment: Muscular relaxing effect, Pinna Reflex Test (P.r), oral, mice; type: in vivo, dd Male mice; conditions: Mus musculus; Table 1; oral; mice; maximum response 15-180 min; Litchfield Wilcoxon
Procedure: as §1
Pinna reflex was observed by using mandolin wire for 1/4 injection syringe.

Row | SMILES | Pain threshold Increase Ratio (pain threshold in mice) | Pain threshold, Mean ± SE, 30 min (pain threshold in mice) [mmHg] | Pain threshold, Mean ± SE, 60 min (pain threshold in mice) [mmHg] | Pain threshold, Mean ± SE, 90 min (pain threshold in mice) [mmHg] | Pain threshold, Mean ± SE, 120 min (pain threshold in mice) [mmHg] | ED50 (mice [1]) [mg/kg] | ED50 (mice [2]) [mg/kg] | Inhibitory per cent, carrageenan-induced edema, 3 hrs. [3] [per cent] | Inhibitory per cent, carrageenan-induced edema, 6 hrs. [3] [per cent] | ED50 (mice [4]) [mg/kg] | ED50 (mice [5]) [mg/kg] | Writhing syndrome (number within 20 minutes) [6] | Inhibitory per cent (writhing) [6] [per cent] | ED50 (mice [7]) [mg/kg] | ED50 (mice [8]) [mg/kg]
1 | O=C1NCC(Cc2ccc(Cl)cc2)O1 (stereo not drawn) [Compound V, 5-(p-chlorobenzyl)-2-oxazolidone] | 1.15 | 54.6 ± 4.9 | 51.3 ± 4.3 | 48.8 ± 2.7 | 48.2 ± 1.7 | 520 | 750 | 30.6 | 22.8 | 750 | 240 | 45.5 ± 5.3 | 12.8 | 380 | 530
2 | O=C1NCC(Cc2ccccc2)O1 (stereo not drawn) [I, 5-benzyl-2-oxazolidone] | 1.34 | 58.2 ± 3.2 | 57.8 ± 3.2 | 51.5 ± 2.8 | 50.7 ± 2.2 | 940 | 1100 | 49.5 | 13.0 |  | 460 | 42.3 ± 5.9 | 18.9 | 660 | 800
3 | CN1CC(Cc2ccccc2)OC1=O (stereo not drawn) [II, 5-benzyl-3-methyl-2-oxazolidone] | 1.36 | 49.1 ± 4.5 | 49.2 ± 3.3 | 43.5 ± 4.7 | 36.3 ± 3.9 | 500 | 810 | 33.3 | 19.7 | 1100 | 340 | 45.9 ± 4.8 | 11.9 | 500 | 520
4 | Cc1c(N(C)C)c(=O)n(-c2ccccc2)n1C [Aminopyrine, reference compound] | 2.20 | 75.7 ± 5.4 | 67.3 ± 5.4 | 70.8 ± 5.3 | 53.1 ± 4.5 |  |  |  |  |  |  | 19.3 ± 6.0 | 62.9 |  | 
5 | O=C1NCC(Cc2ccccc2Cl)O1 (stereo not drawn) [IV, 5-(o-chlorobenzyl)-2-oxazolidone] | 1.89 | 69.8 ± 4.5 | 56.7 ± 5.3 | 53.3 ± 5.5 | 51.8 ± 6.2 | 330 | 660 | 16.8 | 15.9 | 560 | 210 | 12.8 ± 3.6 | 75.4 | 390 | < 500
6 | COc1ccccc1CC1CNC(=O)O1 (stereo not drawn) [III, 5-(o-methoxybenzyl)-2-oxazolidone] | 1.20 | 43.7 ± 4.9 | 46.5 ± 4.2 | 42.9 ± 3.1 | 39.2 ± 3.6 | 380 | 500 | 32.7 | 23.3 | 500 | 175 | 39.1 ± 6.4 | 24.9 | 350 | 380

From patent publication US4062862A, “5-Benzyl-2-oxazolidone derivatives and a process for producing the same” (Nippon Chemiphar Co., Ltd., priority 1975, dated 1977)
